From PMC10322970, “Modular synthesis of clickable peptides via late-stage maleimidation on C(7)-H tryptophan” (Nature Communications, 2023)

Columns and labels:
[1] = Rh(III)-catalysed intramolecular C(7)-H maleimidation of N-pivaloyl Trp (oxidative Heck-type C-C bond, indole C7 to maleimide CH): [RhCp*Cl2]2 10 mol%, AgNTf2 40 mol%, Ag2O 1.5 eq; conditions: DCM, 12.0 mM, 80.0 °C, 24.0 h
A549 cells = experiment: Cytotoxicity by MTT assay, A549; conditions: A549 (integrin αvβ3-positive), 0–40 μM, 36 h
U87MG cells = experiment: Cytotoxicity by MTT assay, U87MG; conditions: U87MG (integrin αvβ3-positive), 0–40 μM, 36 h
LO2 cells = experiment: Cytotoxicity by MTT assay, LO2; conditions: LO2 normal cells, 0–40 μM, 36 h
MIHA cells = experiment: Cytotoxicity by MTT assay, MIHA; conditions: MIHA normal cells, 0–40 μM, 36 h
HeLa cells = experiment: Cytotoxicity by MTT assay, HeLa; conditions: HeLa (integrin αvβ3-negative), 0–40 μM, 36 h
MCF-7 cells = experiment: Cytotoxicity by MTT assay, MCF-7; conditions: MCF-7 (integrin αvβ3-negative), 0–40 μM, 36 h
integrin αvβ5 = integrin αvβ5 (Homo sapiens, UniProt P06756+P18084); experiment: SPR binding to immobilised integrin αvβ5; conditions: for kon: read-out: ka
Sequence of integrin αvβ5 (P06756 31-1048): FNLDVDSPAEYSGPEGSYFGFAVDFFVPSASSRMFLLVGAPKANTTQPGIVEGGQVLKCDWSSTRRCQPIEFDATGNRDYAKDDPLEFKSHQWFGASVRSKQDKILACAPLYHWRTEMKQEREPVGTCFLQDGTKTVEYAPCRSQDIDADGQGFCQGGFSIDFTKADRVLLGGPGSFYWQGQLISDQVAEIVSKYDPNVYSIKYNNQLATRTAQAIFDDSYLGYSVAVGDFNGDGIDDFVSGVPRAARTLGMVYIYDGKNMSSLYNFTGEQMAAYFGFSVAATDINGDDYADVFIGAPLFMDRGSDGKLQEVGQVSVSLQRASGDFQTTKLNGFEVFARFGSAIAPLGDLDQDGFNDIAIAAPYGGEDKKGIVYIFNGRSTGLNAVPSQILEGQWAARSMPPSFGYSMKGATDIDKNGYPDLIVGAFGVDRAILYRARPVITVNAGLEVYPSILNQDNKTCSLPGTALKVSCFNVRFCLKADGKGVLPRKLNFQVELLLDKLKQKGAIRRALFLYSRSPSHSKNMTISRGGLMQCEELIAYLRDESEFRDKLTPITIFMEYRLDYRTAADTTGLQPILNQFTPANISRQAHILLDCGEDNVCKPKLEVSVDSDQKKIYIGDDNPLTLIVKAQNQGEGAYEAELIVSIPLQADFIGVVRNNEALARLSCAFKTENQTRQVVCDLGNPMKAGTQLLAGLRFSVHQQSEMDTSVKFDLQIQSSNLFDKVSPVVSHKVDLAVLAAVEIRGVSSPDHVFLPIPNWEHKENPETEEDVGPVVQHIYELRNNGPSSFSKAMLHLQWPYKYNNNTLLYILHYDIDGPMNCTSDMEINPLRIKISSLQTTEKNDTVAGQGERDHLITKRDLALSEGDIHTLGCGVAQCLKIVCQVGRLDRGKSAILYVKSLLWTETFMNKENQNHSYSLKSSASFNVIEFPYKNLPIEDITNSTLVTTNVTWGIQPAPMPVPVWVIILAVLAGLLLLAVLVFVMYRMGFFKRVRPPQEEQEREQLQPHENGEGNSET
Sequence of integrin αvβ5 (P18084 24-799): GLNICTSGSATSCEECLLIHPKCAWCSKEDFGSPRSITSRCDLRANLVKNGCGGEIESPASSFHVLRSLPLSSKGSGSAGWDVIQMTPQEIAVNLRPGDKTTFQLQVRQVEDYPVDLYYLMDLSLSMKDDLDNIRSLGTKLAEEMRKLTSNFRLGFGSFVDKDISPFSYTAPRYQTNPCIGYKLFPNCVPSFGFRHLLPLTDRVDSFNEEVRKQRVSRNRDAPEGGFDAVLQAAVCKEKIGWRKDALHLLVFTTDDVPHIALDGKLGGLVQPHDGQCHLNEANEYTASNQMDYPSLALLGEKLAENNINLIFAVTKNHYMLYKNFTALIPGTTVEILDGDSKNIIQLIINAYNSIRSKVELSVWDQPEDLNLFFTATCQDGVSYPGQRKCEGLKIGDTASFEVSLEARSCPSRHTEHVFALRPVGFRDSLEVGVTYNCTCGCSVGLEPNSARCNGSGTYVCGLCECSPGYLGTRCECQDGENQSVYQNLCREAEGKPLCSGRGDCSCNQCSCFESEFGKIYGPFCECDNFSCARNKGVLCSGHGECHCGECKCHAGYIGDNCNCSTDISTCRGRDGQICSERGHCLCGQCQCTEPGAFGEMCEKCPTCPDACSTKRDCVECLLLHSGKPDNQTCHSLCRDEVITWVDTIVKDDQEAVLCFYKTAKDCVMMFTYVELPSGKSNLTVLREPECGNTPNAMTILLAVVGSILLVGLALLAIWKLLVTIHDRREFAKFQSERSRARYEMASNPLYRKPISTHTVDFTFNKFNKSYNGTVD

integrin α5β1 = integrin α5β1 (Homo sapiens, UniProt P05556+P08648); experiment: SPR binding to immobilised integrin α5β1; conditions: for kon: read-out: ka
Sequence of integrin α5β1 (P08648 42-1049): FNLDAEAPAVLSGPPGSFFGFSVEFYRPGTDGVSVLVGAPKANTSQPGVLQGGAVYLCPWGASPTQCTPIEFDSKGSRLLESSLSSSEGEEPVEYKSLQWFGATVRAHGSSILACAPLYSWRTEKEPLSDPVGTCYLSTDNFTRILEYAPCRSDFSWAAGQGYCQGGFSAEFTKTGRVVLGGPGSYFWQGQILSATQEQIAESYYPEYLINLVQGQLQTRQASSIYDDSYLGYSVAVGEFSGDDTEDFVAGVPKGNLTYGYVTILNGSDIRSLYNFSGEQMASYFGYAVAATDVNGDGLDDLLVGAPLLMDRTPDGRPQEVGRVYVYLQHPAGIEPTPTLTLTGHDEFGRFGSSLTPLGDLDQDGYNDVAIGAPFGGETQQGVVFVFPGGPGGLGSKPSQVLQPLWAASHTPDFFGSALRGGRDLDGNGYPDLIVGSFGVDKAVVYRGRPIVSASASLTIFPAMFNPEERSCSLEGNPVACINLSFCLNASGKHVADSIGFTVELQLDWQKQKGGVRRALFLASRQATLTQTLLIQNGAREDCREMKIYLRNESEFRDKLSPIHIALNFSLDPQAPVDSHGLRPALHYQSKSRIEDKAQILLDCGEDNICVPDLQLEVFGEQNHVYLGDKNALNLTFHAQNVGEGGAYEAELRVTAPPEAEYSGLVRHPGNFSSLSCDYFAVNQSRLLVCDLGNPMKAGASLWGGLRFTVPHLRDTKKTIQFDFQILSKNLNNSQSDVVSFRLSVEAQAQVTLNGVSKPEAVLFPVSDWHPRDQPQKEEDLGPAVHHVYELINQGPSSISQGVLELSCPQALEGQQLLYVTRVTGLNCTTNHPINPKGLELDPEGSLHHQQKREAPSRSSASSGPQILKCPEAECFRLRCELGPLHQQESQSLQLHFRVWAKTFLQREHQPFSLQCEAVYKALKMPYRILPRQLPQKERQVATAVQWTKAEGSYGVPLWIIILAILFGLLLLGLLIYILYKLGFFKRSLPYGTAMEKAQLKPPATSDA
Sequence of integrin α5β1 (P05556 21-798): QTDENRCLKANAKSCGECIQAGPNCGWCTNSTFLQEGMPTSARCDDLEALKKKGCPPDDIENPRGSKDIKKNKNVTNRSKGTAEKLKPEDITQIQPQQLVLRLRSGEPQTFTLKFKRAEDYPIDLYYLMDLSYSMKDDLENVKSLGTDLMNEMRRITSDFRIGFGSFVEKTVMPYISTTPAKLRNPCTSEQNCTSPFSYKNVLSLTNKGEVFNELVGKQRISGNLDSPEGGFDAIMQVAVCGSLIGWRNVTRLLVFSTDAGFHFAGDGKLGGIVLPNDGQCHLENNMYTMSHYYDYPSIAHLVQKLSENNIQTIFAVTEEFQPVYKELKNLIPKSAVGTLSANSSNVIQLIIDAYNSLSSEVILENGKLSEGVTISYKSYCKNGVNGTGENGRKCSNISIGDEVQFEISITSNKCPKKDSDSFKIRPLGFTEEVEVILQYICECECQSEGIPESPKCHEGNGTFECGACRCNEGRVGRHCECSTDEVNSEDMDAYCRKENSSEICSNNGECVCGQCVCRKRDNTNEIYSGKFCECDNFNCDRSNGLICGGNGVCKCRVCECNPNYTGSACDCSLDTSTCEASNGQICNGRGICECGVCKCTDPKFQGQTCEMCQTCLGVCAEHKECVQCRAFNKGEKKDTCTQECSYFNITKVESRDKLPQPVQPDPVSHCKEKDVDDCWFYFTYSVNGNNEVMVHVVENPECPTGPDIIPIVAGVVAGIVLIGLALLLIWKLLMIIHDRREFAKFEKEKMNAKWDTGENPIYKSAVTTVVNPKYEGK

integrin αvβ3 = integrin αvβ3 (Homo sapiens, UniProt P05106+P06756); experiment: SPR binding to immobilised integrin αvβ3; conditions: for kon: read-out: ka
Sequence of integrin αvβ3 (P06756 31-1048): as the sequence (P06756 31-1048) above
Sequence of integrin αvβ3 (P05106 27-788): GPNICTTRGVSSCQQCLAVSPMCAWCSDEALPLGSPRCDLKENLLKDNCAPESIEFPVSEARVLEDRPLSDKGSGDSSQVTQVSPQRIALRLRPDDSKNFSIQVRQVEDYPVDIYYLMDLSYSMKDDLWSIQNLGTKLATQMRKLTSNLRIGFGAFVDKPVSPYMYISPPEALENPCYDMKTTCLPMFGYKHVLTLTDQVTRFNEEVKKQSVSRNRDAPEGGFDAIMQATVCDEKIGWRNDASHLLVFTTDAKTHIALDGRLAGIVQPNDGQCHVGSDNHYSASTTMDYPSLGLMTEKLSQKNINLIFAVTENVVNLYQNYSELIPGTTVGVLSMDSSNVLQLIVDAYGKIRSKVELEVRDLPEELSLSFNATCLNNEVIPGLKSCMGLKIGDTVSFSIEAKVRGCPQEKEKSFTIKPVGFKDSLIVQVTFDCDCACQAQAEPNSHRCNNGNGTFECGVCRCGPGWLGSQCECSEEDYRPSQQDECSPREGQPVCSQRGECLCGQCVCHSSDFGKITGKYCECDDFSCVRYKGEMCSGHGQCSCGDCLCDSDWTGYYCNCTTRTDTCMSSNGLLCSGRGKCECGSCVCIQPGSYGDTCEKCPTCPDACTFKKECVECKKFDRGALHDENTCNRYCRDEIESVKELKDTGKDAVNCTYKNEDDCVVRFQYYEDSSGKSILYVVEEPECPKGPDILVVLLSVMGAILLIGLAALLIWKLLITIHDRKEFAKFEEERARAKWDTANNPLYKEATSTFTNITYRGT

COC(=O)[C@@H]1Cc2cn(C(=O)C(C)(C)C)c3c(cccc23)C2=CC(=O)N(CCC(=O)N[C@@H](CC(=O)OC(C)(C)C)C(=O)N[C@@H](C)C(=O)N[C@@H](C(C)C)C(=O)NCC(=O)N1)C2=O [3-maleimidopropionyl-Asp(OtBu)-Ala-Val-Gly-Trp(Piv)-OMe]
ring closure, isolated yield ([1]; from COC(=O)[C@H](Cc1cn(C(=O)C(C)(C)C)c2ccccc12)NC(=O)CNC(=O)[C@@H](NC(=O)[C@H](C)NC(=O)[C@H](CC(=O)OC(C)(C)C)NC(=O)CCN1C(=O)C=CC1=O)C(C)C, 26-membered ring): 43%

CC[C@H](C)[C@@H]1NC(=O)[C@H](C(C)(C)C)NC(=O)[C@@H](NC(=O)OC(C)(C)C)Cc2cn(C(=O)C(C)(C)C)c3c(cccc23)C2=CC(=O)N(CCCC[C@@H](C(=O)OC)NC(=O)CNC1=O)C2=O [Boc-Trp(Piv)-Tle-Ile-Gly-Lys(Nε-maleimide)-OMe]
ring closure, isolated yield ([1]; from CC[C@H](C)[C@H](NC(=O)[C@@H](NC(=O)[C@H](Cc1cn(C(=O)C(C)(C)C)c2ccccc12)NC(=O)OC(C)(C)C)C(C)(C)C)C(=O)NCC(=O)N[C@@H](CCCCN1C(=O)C=CC1=O)C(=O)OC, 26-membered ring): 34%

CC[C@H](C)[C@@H]1NC(=O)[C@@H](NC(=O)OC(C)(C)C)CCCCN2C(=O)C=C(C2=O)c2cccc3c(cn(C(=O)C(C)(C)C)c23)C[C@@H](C(=O)N[C@H](C(=O)OC)[C@@H](C)CC)NC(=O)CNC(=O)[C@H](C)NC1=O [Boc-Lys(Nε-maleimide)-Ile-Ala-Gly-Trp(Piv)-Ile-OMe]
ring closure, isolated yield ([1]; from CC[C@H](C)[C@H](NC(=O)[C@H](CCCCN1C(=O)C=CC1=O)NC(=O)OC(C)(C)C)C(=O)N[C@@H](C)C(=O)NCC(=O)N[C@@H](Cc1cn(C(=O)C(C)(C)C)c2ccccc12)C(=O)N[C@H](C(=O)OC)[C@@H](C)CC, 26-membered ring): 32%

COC(=O)[C@@H]1Cc2cn(C(=O)C(C)(C)C)c3c(cccc23)C2=CC(=O)N(CCCC[C@H](NC(=O)OC(C)(C)C)C(=O)N[C@@H](C(C)C)C(=O)N[C@@H](Cc3ccccc3)C(=O)NCC(=O)N1)C2=O [Boc-Lys(Nε-maleimide)-Val-Phe-Gly-Trp(Piv)-OMe]
ring closure, isolated yield ([1]; from COC(=O)[C@H](Cc1cn(C(=O)C(C)(C)C)c2ccccc12)NC(=O)CNC(=O)[C@H](Cc1ccccc1)NC(=O)[C@@H](NC(=O)[C@H](CCCCN1C(=O)C=CC1=O)NC(=O)OC(C)(C)C)C(C)C, 26-membered ring): 39%

COC(=O)[C@@H]1Cc2cn(C(=O)C(C)(C)C)c3c(cccc23)C2=CC(=O)N(CCCC[C@H](NC(=O)OC(C)(C)C)C(=O)N[C@@H](CCCNC(=N)NS(=O)(=O)c3c(C)c(C)c4c(c3C)CC(C)(C)O4)C(=O)NCC(=O)N[C@@H](CC(=O)OC(C)(C)C)C(=O)NCC(=O)N1)C2=O
ring closure, isolated yield ([1]; from COC(=O)[C@H](Cc1cn(C(=O)C(C)(C)C)c2ccccc12)NC(=O)CNC(=O)[C@H](CC(=O)OC(C)(C)C)NC(=O)CNC(=O)[C@H](CCCNC(=N)NS(=O)(=O)c1c(C)c(C)c2c(c1C)CC(C)(C)O2)NC(=O)[C@H](CCCCN1C(=O)C=CC1=O)NC(=O)OC(C)(C)C, 29-membered ring): 32%

COC(=O)[C@@H]1Cc2cn(C(=O)C(C)(C)C)c3c(cccc23)C2=CC(=O)N(CCCCCCCCCCC(=O)N1)C2=O [11-maleimidoundecanoyl-Trp(Piv)-OMe]
ring closure, isolated yield ([1]; from COC(=O)[C@H](Cc1cn(C(=O)C(C)(C)C)c2ccccc12)NC(=O)CCCCCCCCCCN1C(=O)C=CC1=O, 22-membered ring): 22%

COC(=O)[C@@H]1Cc2cn(C(=O)C(C)(C)C)c3c(cccc23)C2=CC(=O)N(CCCCCCCCCCC(=O)NCC(=O)NCC(=O)N1)C2=O [11-maleimidoundecanoyl-Gly-Gly-Trp(Piv)-OMe]
ring closure, isolated yield ([1]; from COC(=O)[C@H](Cc1cn(C(=O)C(C)(C)C)c2ccccc12)NC(=O)CNC(=O)CNC(=O)CCCCCCCCCCN1C(=O)C=CC1=O, 28-membered ring): 38%

COC(=O)[C@@H]1Cc2cn(C(=O)C(C)(C)C)c3c(cccc23)C2=CC(=O)N(CCCCCC(=O)NC3(CCCC3)C(=O)N1)C2=O
ring closure, isolated yield ([1]; from COC(=O)[C@H](Cc1cn(C(=O)C(C)(C)C)c2ccccc12)NC(=O)C1(NC(=O)CCCCCN2C(=O)C=CC2=O)CCCC1, 20-membered ring): 0%

COC(=O)[C@@H]1Cc2cn(C(=O)C(C)(C)C)c3c(cccc23)C2=CC(=O)N(CCCC[C@H](NC(=O)OC(C)(C)C)C(=O)N[C@@H](C)C(=O)N[C@@H](Cc3ccccc3)C(=O)N[C@@H](CC(C)C)C(=O)NCC(=O)N1)C2=O [Boc-Lys(Nε-maleimide)-Ala-Phe-Leu-Gly-Trp(Piv)-OMe]
ring closure, isolated yield ([1]; from COC(=O)[C@H](Cc1cn(C(=O)C(C)(C)C)c2ccccc12)NC(=O)CNC(=O)[C@H](CC(C)C)NC(=O)[C@H](Cc1ccccc1)NC(=O)[C@H](C)NC(=O)[C@H](CCCCN1C(=O)C=CC1=O)NC(=O)OC(C)(C)C, 29-membered ring): 35%

COC(=O)[C@@H]1Cc2c[nH]c3c(cccc23)C2C(=O)N(CCCC[C@H](N)C(=O)N[C@@H](CCCNC(=N)N)C(=O)NCC(=O)N[C@@H](CC(=O)O)C(=O)NCC(=O)N1)C(=O)C2SCCC(=O)NCC(=O)N[C@@H](Cc1ccccc1)C(=O)N[C@@H](CC(C)C)C(=O)NCC(=O)N[C@H]1C[C@H](O[C@H]2C[C@](O)(C(=O)CO)Cc3c(O)c4c(c(O)c32)C(=O)c2c(OC)cccc2C4=O)O[C@@H](C)[C@H]1O (stereo partly drawn) [RGD-GFLG-DOX]
cytotoxicity (in words) (A549 cells): stronger cytotoxicity than DOX | cytotoxicity (in words) (U87MG cells): stronger cytotoxicity than DOX | cytotoxicity (in words) (LO2 cells): lower cytotoxicity | cytotoxicity (in words) (MIHA cells): lower cytotoxicity | cytotoxicity (in words) (HeLa cells): lower cytotoxicity | cytotoxicity (in words) (MCF-7 cells): lower cytotoxicity

COC(=O)[C@@H]1Cc2cn(C(=O)C(C)(C)C)c3c(cccc23)C2=CC(=O)N(CCCC[C@H](NC(=O)OC(C)(C)C)C(=O)N1)C2=O [Boc-Lys(Nε-maleimide)-Trp(Piv)-OMe]
ring closure, isolated yield ([1]; from COC(=O)[C@H](Cc1cn(C(=O)C(C)(C)C)c2ccccc12)NC(=O)[C@H](CCCCN1C(=O)C=CC1=O)NC(=O)OC(C)(C)C, 17-membered ring): 0%

N=C(N)NCCC[C@@H]1NC(=O)[C@H](CCCCNC(=S)Nc2ccc3c(c2)C(=O)OC32c3ccc(O)cc3Oc3cc(O)ccc32)NC(=O)[C@@H](Cc2ccccc2)NC(=O)[C@H](CC(=O)O)NC(=O)CNC1=O [10c, cyclo-(RGDfK (FITC)), reference compound]
Kd (integrin αvβ5): 4.13 µM | kon (integrin αvβ5): 23400 M⁻¹ s⁻¹ | Kd (integrin α5β1): 2.76 µM | kon (integrin α5β1): 25400 M⁻¹ s⁻¹ | Kd (integrin αvβ3): 65.5 µM | kon (integrin αvβ3): 10300 M⁻¹ s⁻¹

COC(=O)[C@@H]1Cc2c[nH]c3c(cccc23)C2=CC(=O)N(CCCC[C@H](N)C(=O)N[C@@H](CCCNC(=N)N)C(=O)NCC(=O)N[C@@H](CC(=O)O)C(=O)NCC(=O)N1)C2=O [10a]
Kd (integrin αvβ5): 6.13 µM | kon (integrin αvβ5): 12500 M⁻¹ s⁻¹ | Kd (integrin α5β1): 8.36 µM | kon (integrin α5β1): 15300 M⁻¹ s⁻¹ | Kd (integrin αvβ3): 0.675 µM | kon (integrin αvβ3): 42300 M⁻¹ s⁻¹

CC[C@H](C)[C@@H]1NC(=O)[C@H](Cc2ccccc2)NC(=O)[C@H](CCC(=O)OC(C)(C)C)NC(=O)CCN2C(=O)C=C(C2=O)c2cccc3c(cn(C(=O)C(C)(C)C)c23)C[C@@H](C(=O)OC)NC(=O)CNC1=O [3-maleimidopropionyl-Glu(OtBu)-Phe-Ile-Gly-Trp(Piv)-OMe]
ring closure, isolated yield ([1]; from CC[C@H](C)[C@H](NC(=O)[C@H](Cc1ccccc1)NC(=O)[C@H](CCC(=O)OC(C)(C)C)NC(=O)CCN1C(=O)C=CC1=O)C(=O)NCC(=O)N[C@@H](Cc1cn(C(=O)C(C)(C)C)c2ccccc12)C(=O)OC, 26-membered ring): 35%

COC(=O)[C@@H]1Cc2cn(C(=O)C(C)(C)C)c3c(cccc23)C2=CC(=O)N(CCCCCC(=O)N[C@@H](C)C(=O)NCC(=O)N1)C2=O [6-maleimidohexanoyl-Ala-Gly-Trp(Piv)-OMe]
ring closure, isolated yield ([1]; from COC(=O)[C@H](Cc1cn(C(=O)C(C)(C)C)c2ccccc12)NC(=O)CNC(=O)[C@H](C)NC(=O)CCCCCN1C(=O)C=CC1=O, 23-membered ring): 15%
